In ChEMBL document CHEMBL1137545, “Antiproliferative activities of a library of hybrids between indanones and HDAC inhibitor SAHA and MS-275 analogues” (Bioorg Med Chem Lett, 2007) one finds IC50 and Activity data, which are given here for nine compounds.

pIC50: −log10 of the molar value. Activity calls are given as the source filed them. The calls are words filed in the database; no cut-off is given here.

System in the first test: not listed separately
The test is described as follows: Antiproliferative activity against H661 cells after 48 hrs. In kind it is functional, cell-based. As to conditions: Homo sapiens, NCI-H661, 48 h.
As to `CC(/C=C/C(=O)NO)=C\[C@@H](C)C(=O)c1ccc(N(C)C)cc1` [TRICHOSTATIN], the pIC50 (usually the negative decadic logarithm of the IC50, by convention in mol/L) is 7.07.

With `CC1(CCCCC(=O)NO)Cc2ccccc2C1=O` (centres undefined), the pIC50 is less than 4.60.

Turning to `CC1(CCCCCCC(=O)NO)Cc2ccccc2C1=O` (centres undefined), the pIC50 is 4.70.

In the next test the test system is NCI-H661. The test is described as follows: Antiproliferative activity against H661 cells at 25 uM after 48 hrs. The format is functional, cell-based. As to conditions: Homo sapiens.
With `CC1(CCCCCC(=O)NO)Cc2ccccc2C1=O` (centres undefined), the outcome was inactive.

Regarding `CC1(Cc2nc(C(=O)Nc3ccccc3N)cs2)Cc2ccccc2C1=O` (centres undefined), the outcome was inactive.

Take `CN(C)c1ccc2c(c1)CC(C)(CCCCC(=O)NO)C2=O` (centres undefined): the result was inactive.

As for `CC1(Cc2cccc(C(=O)Nc3ccccc3N)c2)Cc2ccccc2C1=O` (centres undefined), the result was inactive.

As for `CC1(Cc2cccc(C(=O)NO)c2)Cc2ccccc2C1=O` (centres undefined), the outcome was inactive.

Turning to `CC1(Cc2nc(C(=O)NO)cs2)Cc2ccccc2C1=O` (centres undefined), the outcome was inactive.
